From patent US20260327221A1, “INHIBITORS OF CYCLIC GMP-AMP SYNTHASE AND USES THEREOF” (Ventus Therapeutics U.S., Inc., priority 2023, published 2026)
Like-named read-outs stand apart in the source and are kept apart here.

Molecular target: hcGAS (Homo sapiens, UniProt Q8N884)
Assay: hcGAS LCMS assay (direct measurement of cGAMP production by LC/MS)
Format: biochemical
Procedure: cGAS catalyzes the cyclization of ATP and GTP to produce cGAMP, which is the activating ligand of STING. Human cGAS (hcGAS) inhibition can thus be quantified by measuring how much cGAMP is formed either indirectly, by monitoring ATP-depletion as in the hcGAS Kinase-Glo assay (as described below), or directly, such as using the hcGAS LCMS assay (as described below).
2. hGAS LCMS Assay Conditions
Compounds were tested for their hcGAS inhibition activity using direct measurement of cGAMP production by LC/MS. Briefly, compounds were incubated with enzyme and substrates for 4 hours (see Table C), before the reaction was stopped with 3 volumes of 70/30 Acetonitrile/H2O mix containing 0.15 uM cGAMP-^13C10^15N5 as internal standard and mixed for 5 mmn. After centrifugation (3700 rpm, […], […]), 100 uL of each reaction was collected and mixed to equal volume of acetonitrile (MeCN). Samples were then analyzed on Qexactive (Column: XBridge BEH Amide Column, 130 Å, 3.5 μm, 3 mm×50 mm. Mobile phase A: 10 mM Ammonium acetate in 95/5 H2O/MeCN (0.5% DMSO), Mobile phase B: MeCN (0.5% DMSO).
The results of the assay, expressed as IC50 values, are reported in Table D with the following designations: A represents an IC50 value <0.005 μM (with A1 representing an IC50 value <0.0005 μM, A2 representing an IC50 value ≥0.0005 μM and <0.001 μM, and A3 representing an IC50 value ≥0.001 μM and <0.005 μM); B represents an IC50 value ≥0.005 μM and <0.02 μM; C represents an IC50 value ≥0.02 μM and <0.06 μM; and D represents an IC50 value ≥0.06 μM.

[1] = 4 h incubation with enzyme and substrates, cGAMP production by LC/MS, class symbols, read-out: hcGAS LCMS IC50

Sequence of hcGAS (Q8N884 whole entry): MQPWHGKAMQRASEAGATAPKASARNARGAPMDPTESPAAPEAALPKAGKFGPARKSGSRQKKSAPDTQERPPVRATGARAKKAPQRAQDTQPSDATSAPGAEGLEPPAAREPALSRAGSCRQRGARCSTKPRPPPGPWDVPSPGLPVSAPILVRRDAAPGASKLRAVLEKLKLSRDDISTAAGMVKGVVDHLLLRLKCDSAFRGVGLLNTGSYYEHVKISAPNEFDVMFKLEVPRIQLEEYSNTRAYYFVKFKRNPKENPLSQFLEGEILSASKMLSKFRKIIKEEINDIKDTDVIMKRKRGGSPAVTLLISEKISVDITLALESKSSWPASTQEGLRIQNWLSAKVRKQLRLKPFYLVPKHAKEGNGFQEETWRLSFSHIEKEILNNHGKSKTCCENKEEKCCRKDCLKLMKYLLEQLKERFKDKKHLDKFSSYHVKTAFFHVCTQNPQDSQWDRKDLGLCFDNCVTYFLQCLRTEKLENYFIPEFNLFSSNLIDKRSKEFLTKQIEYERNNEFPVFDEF

IC50 [1]	IC50 (hcGAS 0.5 nM, ATP 100 μM, GTP 100 μM, dsDNA 25 nM, pH 7.4, 4 h incubation, read-out: hcGAS inhibition IC50 (activity class, Table D))	Compound
1 to 5 nM	–	COC[C@H](CO)COc1c(-c2c(OC)cccc2OC)cc(C(=O)Nc2nnc(-n3nccc3N)s2)oc1=O [92B*, (S)-N-(5-(5-amino-1H-pyrazol-1-yl)-1,3,4-thiadiazol-2-yl)-4-(2,6-dimethoxyphenyl)-3-(3-hydroxy-2-(methoxymethyl)propoxy)-2-oxo-2H-pyran-6-carboxamide]
0.5 to 1 nM	–	COc1cccc(OC)c1-c1cc(C(=O)Nc2nnc(-n3nccc3N)s2)oc(=O)c1OCCN1C[C@@H]2C[C@H]1CS2 [93A*, 3-(2-((1S,4S)-2-thia-5-azabicyclo[2.2.1]heptan-5-yl)ethoxy)-N-(5-(5-amino-1H-pyrazol-1-yl)-1,3,4-thiadiazol-2-yl)-4-(2,6-dimethoxyphenyl)-2-oxo-2H-pyran-6-carboxamide]
0.5 to 1 nM	–	COc1cccc(OC)c1-c1cc(C(=O)Nc2nnc(-n3nccc3N)s2)oc(=O)c1OCCN1C[C@H]2C[C@@H]1CS2 [93B*, 3-(2-((1R,4R)-2-thia-5-azabicyclo[2.2.1]heptan-5-yl)ethoxy)-N-(5-(5-amino-1H-pyrazol-1-yl)-1,3,4-thiadiazol-2-yl)-4-(2,6-dimethoxyphenyl)-2-oxo-2H-pyran-6-carboxamide]
1 to 5 nM	–	COc1cccc(OC)c1-c1cc(C(=O)Nc2nnc(-n3nccc3N)s2)oc(=O)c1OCC1(OC)CCC(O)CC1 (stereo not shown) [99A*/99B*]
1 to 5 nM	–	COc1cccc(OC)c1-c1cc(C(=O)Nc2nnc(-n3nccc3N)s2)oc(=O)c1O[C@H](CO)C1CC1 [106A*, (S)-N-(5-(5-amino-1H-pyrazol-1yl)-1,3,4-thiadiazol-2-yl)-3-(1-cyclopropyl-2-hydroxyethoxy)-4-(2,6-dimethoxyphenyl)-2-oxo-2H-pyran-6-carboxamide]
1 to 5 nM	–	COc1cccc(OC)c1-c1cc(C(=O)Nc2nnc(-n3nccc3N)s2)oc(=O)c1O[C@@H](CO)C1CC1 [106B*, (R)-N-(5-(5-amino-1H-pyrazol-1-yl)-1,3,4-thiadiazol-2-yl)-3-(1-cyclopropyl-2-hydroxyethoxy)-4-(2,6-dimethoxyphenyl)-2-oxo-2H-pyran-6-carboxamide]
5 to 20 nM	–	COCCOc1c(-c2ncccc2OC)cc(C(=O)Nc2nnc(-n3nccc3C)s2)oc1=O [Compound 4, 3-(2-methoxyethoxy)-4-(3-methoxypyridin-2-yl)-N-(5-(5-methyl-1H-pyrazol-1-yl)-1,3,4-thiadiazol-2-yl)-2-oxo-2H-pyran-6-carboxamide]
0.5 to 1 nM	–	COCCOc1c(-c2c(OC)cccc2OC)cc(C(=O)Nc2nnc(-n3nccc3N)s2)oc1=O [Compound 6, N-(5-(5-amino-1H-pyrazol-1-yl)-1,3,4-thiadiazol-2-yl)-4-(2,6-dimethoxyphenyl)-3-(2-methoxyethoxy)-2-oxo-2H-pyran-6-carboxamide]
1 to 5 nM	–	COCCOc1c(-c2ncccc2C#N)cc(C(=O)Nc2nnc(-n3nccc3C)s2)oc1=O [Compound 7, 4-(3-cyanopyridin-2-yl)-3-(2-methoxyethoxy)-N-(5-(5-methyl-1H-pyrazol-1-yl)-1,3,4-thiadiazol-2-yl)-2-oxo-2H-pyran-6-carboxamide]
0.5 to 1 nM	–	COCCOc1c(-c2c(C#N)cccc2OC)cc(C(=O)Nc2nnc(-n3nccc3N)s2)oc1=O [Compound 8, N-(5-(5-amino-1H-pyrazol-1-yl)-1,3,4-thiadiazol-2-yl)-4-(2-cyano-6-methoxyphenyl)-3-(2-methoxyethoxy)-2-oxo-2H-pyran-6-carboxamide]
0.5 to 1 nM	–	COCCOc1c(-c2ncccc2C#N)cc(C(=O)Nc2nnc(-n3nccc3N)s2)oc1=O [Compound 9, N-(5-(5-amino-1H-pyrazol-1-yl)-1,3,4-thiadiazol-2-yl)-4-(3-cyanopyridin-2-yl)-3-(2-methoxyethoxy)-2-oxo-2H-pyran-6-carboxamide]
0.5 to 1 nM	–	COCCOc1c(-c2c(C#N)cccc2C#N)cc(C(=O)Nc2nnc(-n3nccc3N)s2)oc1=O [Compound 12, N-(5-(5-amino-1H-pyrazol-1-yl)-1,3,4-thiadiazol-2-yl)-4-(2,6-dicyanophenyl)-3-(2-methoxyethoxy)-2-oxo-2H-pyran-6-carboxamide]
0.5 to 1 nM	–	COCCOc1c(-c2c(F)cccc2OC)cc(C(=O)Nc2nnc(-n3nccc3N)s2)oc1=O [Compound 13, N-(5-(5-amino-1H-pyrazol-1-yl)-1,3,4-thiadiazol-2-yl)-4-(2-fluoro-6-methoxyphenyl)-3-(2-methoxyethoxy)-2-oxo-2H-pyran-6-carboxamide]
20 to 60 nM	–	COc1c(-c2c(C#N)cnn2C)cc(C(=O)Nc2nnc(-n3nccc3C)s2)oc1=O [Compound 14, 4-(4-cyano-1-methyl-1H-pyrazol-5-yl)-3-methoxy-N-(5-(5-methyl-1H-pyrazol-1-yl)-1,3,4-thiadiazol-2-yl)-2-oxo-2H-pyran-6-carboxamide]
< 0.5 nM	–	COc1cccc(OC)c1-c1cc(C(=O)Nc2nnc(-n3nccc3N)s2)oc(=O)c1OCCO [Compound 17, N-(5-(5-amino-1H-pyrazol-1-yl)-1,3,4-thiadiazol-2-yl)-4-(2,6-dimethoxyphenyl)-3-(2-hydroxyethoxy)-2-oxo-2H-pyran-6-carboxamide]

More lines, now with the values behind:

Compound	IC50 [1]	IC50 (hcGAS 0.5 nM, ATP 100 μM, GTP 100 μM, dsDNA 25 nM, pH 7.4, 4 h incubation, read-out: hcGAS inhibition IC50 (activity class, Table D))
COc1cccc(OC)c1-c1cc(C(=O)Nc2nnc(-n3nccc3N)s2)oc(=O)c1OCCN1CCSCC1CO (stereo not shown) [96A*/96B*]	1 to 5 nM	–
COc1cccc(OC)c1-c1cc(C(=O)Nc2nnc(-n3nccc3N)s2)oc(=O)c1OCCN1CCSC(CO)C1 (stereo not shown) [100A*/100B*]	1 to 5 nM	–
COc1cccc(OC)c1-c1cc(C(=O)Nc2nnc(-n3nccc3N)s2)oc(=O)c1OCCOC1CC(O)C1 (stereo not shown) [102A*, N-(5-(5-amino-1H-pyrazol-1-yl)-1,3,4-thiadiazol-2-yl)-4-(2,6-dimethoxyphenyl)-3-(2-((1s,3s)-3-hydroxycyclobutoxy)ethoxy)-2-oxo-2H-pyran-6-carboxamide]	0.5 to 1 nM	–
COc1c(-c2ccccc2C#N)cc(C(=O)Nc2nnc(-n3nccc3C)s2)oc1=O [Compound 1, 4-(2-cyanophenyl)-3-methoxy-N-(5-(5-methyl-1H-pyrazol-1-yl)-1,3,4-thiadiazol-2-yl)-2-oxo-2H-pyran-6-carboxamide]	0.5 to 1 nM	0.5 to 1 nM
COc1c(-c2ccccc2S(C)(=O)=O)cc(C(=O)Nc2nnc(-n3nccc3C)s2)oc1=O [Compound 2, 3-methoxy-N-(5-(5-methyl-1H-pyrazol-1-yl)-1,3,4-thiadiazol-2-yl)-4-(2-(methylsulfonyl)phenyl)-2-oxo-2H-pyran-6-carboxamide]	5 to 20 nM	–
COc1c(-c2ccccc2P(C)(C)=O)cc(C(=O)Nc2nnc(-n3nccc3C)s2)oc1=O [Compound 3, 4-(2-(dimethylphosphoryl)phenyl)-3-methoxy-N-(5-(5-methyl-1H-pyrazol-1-yl)-1,3,4-thiadiazol-2-yl)-2-oxo-2H-pyran-6-carboxamide]	20 to 60 nM	–
COCCOc1c(-c2c(OC)cccc2OC)cc(C(=O)Nc2nnc(-c3c(Cl)ccn3C)s2)oc1=O [Compound 5, N-(5-(3-chloro-1-methyl-1H-pyrrol-2-yl)-1,3,4-thiadiazol-2-yl)-4-(2,6-dimethoxyphenyl)-3-(2-methoxyethoxy)-2-oxo-2H-pyran-6-carboxamide]	< 0.5 nM	–
COCCOc1c(-c2ncccc2OC)cc(C(=O)Nc2nnc(-n3nccc3N)s2)oc1=O [Compound 10, N-(5-(5-amino-1H-pyrazol-1-yl)-1,3,4-thiadiazol-2-yl)-3-(2-methoxyethoxy)-4-(3-methoxypyridin-2-yl)-2-oxo-2H-pyran-6-carboxamide]	1 to 5 nM	–
COCCOc1c(-c2c(C)cccc2OC)cc(C(=O)Nc2nnc(-n3nccc3N)s2)oc1=O [Compound 11, N-(5-(5-amino-1H-pyrazol-1-yl)-1,3,4-thiadiazol-2-yl)-4-(2-methoxy-6-methylphenyl)-3-(2-methoxyethoxy)-2-oxo-2H-pyran-6-carboxamide]	0.5 to 1 nM	–
COCCOc1c(-c2ncccc2OC)cc(C(=O)Nc2nnc(-c3c(F)ccn3C)s2)oc1=O [Compound 18, N-(5-(3-fluoro-1-methyl-1H-pyrrol-2-yl)-1,3,4-thiadiazol-2-yl)-3-(2-methoxyethoxy)-4-(3-methoxypyridin-2-yl)-2-oxo-2H-pyran-6-carboxamide]	1 to 5 nM	–
COCCOc1c(-c2c(OC)ccnc2OC)cc(C(=O)Nc2nnc(-n3nccc3N)s2)oc1=O [Compound 19, N-(5-(5-amino-1H-pyrazol-1-yl)-1,3,4-thiadiazol-2-yl)-4-(2,4-dimethoxypyridin-3-yl)-3-(2-methoxyethoxy)-2-oxo-2H-pyran-6-carboxamide]	1 to 5 nM	–
COCC(COC)Oc1c(-c2c(OC)cccc2OC)cc(C(=O)Nc2nnc(-n3nccc3N)s2)oc1=O [Compound 20, N-(5-(5-amino-1H-pyrazol-1-yl)-1,3,4-thiadiazol-2-yl)-4-(2,6-dimethoxyphenyl)-3-((1,3-dimethoxypropan-2-yl)oxy)-2-oxo-2H-pyran-6-carboxamide]	1 to 5 nM	–
